By IC50 is commonly meant the concentration at which inhibition is half-maximal. Low readings indicate inhibition by little substance, high ones a need for much substance.

human Cat S, sequence (P25774 115-331): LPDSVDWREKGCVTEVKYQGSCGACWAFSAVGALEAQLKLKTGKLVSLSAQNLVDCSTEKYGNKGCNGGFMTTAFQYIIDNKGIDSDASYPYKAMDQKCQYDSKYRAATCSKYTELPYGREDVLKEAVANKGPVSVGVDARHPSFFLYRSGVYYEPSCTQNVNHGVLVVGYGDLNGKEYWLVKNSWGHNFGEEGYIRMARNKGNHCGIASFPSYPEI

This assay deals with human Cat S (Homo sapiens, UniProt P25774). The experiment in a line: Cathepsin enzyme inhibition assay (fluorogenic peptide substrate cleavage). Format: biochemical. The conditions noted are these: human Cat S 1 nM; substrate Z-Val-Val-Arg-AMC 20 μM; pH 6.5; fluorescence over 20 minutes. Summed up:
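Fluorogenic cleavage of Z-Val-Val-Arg-AMC (20 μM) by 1 nM enzyme in 100 mM potassium phosphate pH 6.5, 5 mM EDTA, 5 mM DTT, 0.001% Triton X-100. Reaction started with substrate; fluorescence (ex 360/em 465 nm) followed over 20 minutes. IC50 by standard methods.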
`CO[C@@H]1C[C@H](S(=O)(=O)c2ccc(N3CCCCC3)cc2Cl)C[C@H]1C(=O)NC1(C#N)CC1` (racemic) [Example 64, (1R,2R,4R) and (1S,2S,4S)-4-(2-Chloro-4-piperidin-1-yl-benzenesulfonyl)-2-methoxy-cyclopentanecarboxylic acid (1-cyano-cyclopropyl)-amide] displayed an IC50 of 12 nM. This counts as double-digit nanomolar.

The compound `N#CC1(NC(=O)[C@@H]2C[C@@H](S(=O)(=O)c3ccccc3)C[C@H]2C(=O)N2CCOCC2)CCC1` [Example 35, (1R,2R,4R)-4-Benzenesulfonyl-2-(morpholine-4-carbonyl)-cyclopentanecarboxylic acid (1-cyano-cyclobutyl)-amide] came in with an IC50 of 4 nM. `N#CCNC(=O)[C@@H]1C[C@@H](S(=O)(=O)CC2CC2)C[C@H]1C(=O)N1CCOCC1` [Example 40, (1R,2R,4R)-4-Cyclopropylmethanesulfonyl-2-(morpholine-4-carbonyl)-cyclopentanecarboxylic acid cyanomethyl-amide]: inhibition was half-maximal at 230 nM (IC50).

Turning to `N#CC1(NC(=O)[C@H]2CC[C@H](S(=O)(=O)c3ccc(N4CCC(F)(F)C4)cc3Cl)C2)CC1` (racemic) [Example 96, (1S,3S) and (1R,3R)-3-[2-chloro-4-(3,3-difluoro-pyrrolidin-1-yl)-benzenesulfonyl]-cyclopentanecarboxylic acid (1-cyano-cyclopropyl)-amide], it took 213 nM to reach half-maximal inhibition (IC50). For `CO[C@@H]1C[C@H](S(=O)(=O)c2ccc(-c3cnccn3)cc2C(F)(F)F)C[C@H]1C(=O)NC1(C#N)CC1` (racemic) [Example 111, (1R,2R,4R) and (1S,2S,4S)-2-Methoxy-4-(4-pyrazin-2-yl-2-trifluoromethyl-benzenesulfonyl)-cyclopentanecarboxylic acid (1-cyano-cyclopropyl)-amide], the IC50 came to 0.4 nM. Compound `CO[C@@H]1C[C@H](S(=O)(=O)c2ccc(-c3cncc(C)c3)cc2C(F)(F)F)C[C@H]1C(=O)NC1(C#N)CC1` (racemic) [Example 85, (1R,2R,4R) and (1S,2S,4S)-2-Methoxy-4-[4-(5-methyl-pyridin-3-yl)-2-trifluoromethyl-benzenesulfonyl]-cyclopentanecarboxylic acid (1-cyano-cyclopropyl)-amide] yielded an IC50 of 0.5 nM. In turn, `N#CC1(NC(=O)[C@@H]2C[C@@H](S(=O)(=O)c3ccc(F)cc3Cl)C[C@H]2C(=O)N2CC(F)(F)C2)CC1` [Example 119, (1R,2R,4R)-4-(2-Chloro-4-fluoro-benzenesulfonyl)-2-(3,3-difluoro-azetidine-1-carbonyl)-cyclopentanecarboxylic acid (1-cyano-cyclopropyl)-amide] displayed a 50% inhibitory concentration (IC50) of 6.1 nM.

`COc1ccc(S(=O)(=O)[C@H]2C[C@@H](OC)[C@H](C(=O)NC3(C#N)CC3)C2)c(Cl)c1` (racemic) [Example 89, (1R,2R,4R) and (1S,2S,4S)-4-(2-Chloro-4-methoxy-benzenesulfonyl)-2-methoxy-cyclopentanecarboxylic acid (1-cyano-cyclopropyl)-amide] registered an IC50 of 7.4 nM. The IC50 values of the last two compounds are within 1.5-fold of each other. Consider `CCO[C@@H]1C[C@H](S(=O)(=O)c2ccc(-c3c(C)noc3C)cc2C(F)(F)F)C[C@H]1C(=O)NC1(C#N)CC1` (racemic) [Example 115, (1R,2R,4R) and (1S,2S,4S)-4-[4-(3,5-Dimethyl-isoxazol-4-yl)-2-trifluoromethyl-benzenesulfonyl]-2-ethoxy-cyclopentanecarboxylic acid (1-cyano-cyclopropyl)-amide], for which the IC50 turned out to be 0.2 nM. As for `N#CC1(NC(=O)[C@@H]2C[C@@H](S(=O)(=O)c3ccccc3Cl)C[C@H]2O)CC1` (racemic) [Example 48, (1R,2R,4R) and (1S,2S,4S)-4-(2-Chloro-benzenesulfonyl)-2-hydroxy-cyclopentanecarboxylic acid (1-cyano-cyclopropyl)-amide], the figure is 120 nM; as for `Cn1cc(-c2ccc(S(=O)(=O)[C@H]3C[C@@H](OC4CCS(=O)(=O)CC4)[C@H](C(=O)NC4(C#N)CC4)C3)c(C(F)(F)F)c2)cn1` (racemic) [Example 184, (1R,2R,4R) and (1S,2S,4S)-2-[(tetrahydro-1,1-dioxo-2H-thiopyran-4-yl)oxy]-4-[4-(1-methyl-1H-pyrazol-4-yl)-2-trifluoromethyl-benzenesulfonyl]-cyclopentanecarboxylic acid (1-cyano-cyclopropyl)-amide], 0.16 nM; as for `N#CC1(NC(=O)[C@@H]2C[C@@H](S(=O)(=O)c3ccc(F)cc3Cl)C[C@H]2COc2cccnc2)CC1` [Example 165, (1R,2R,4S)-4-(2-Chloro-4-fluoro-benzenesulfonyl)-2-(pyridin-3-yloxymethyl)-cyclopentanecarboxylic acid (1-cyano-cyclopropyl)-amide], 6.83 nM. The compound `CO[C@@H]1C[C@H](S(=O)(=O)c2ccc(Br)cc2C(F)(F)F)C[C@H]1C(=O)NC1(C#N)CC1` (racemic) [Example 58, (1R,2R,4R) and (1S,2S,4S)-4-(4-Bromo-2-trifluoromethyl-benzenesulfonyl)-2-methoxy-cyclopentanecarboxylic acid (1-cyano-cyclopropyl)-amide] came in with an IC50 of 6.2 nM. As for `CO[C@@H]1C[C@H](S(=O)(=O)c2ccc(N3CCN(C(C)=O)CC3)cc2C(F)(F)F)C[C@H]1C(=O)NC1(C#N)CC1` (racemic) [Example 217, (1R,2R,4R) and (1S,2S,4S)-4-[4-(4-Acetyl-piperazin-1-yl)-2-trifluoromethyl-benzenesulfonyl]-2-methoxy-cyclopentanecarboxylic acid (1-cyano-cyclopropyl)-amide], the IC50 is 1.03 nM. In turn, `CCCO[C@@H]1C[C@H](S(=O)(=O)c2ccccc2C(F)(F)F)C[C@H]1C(=O)NC1(C#N)CC1` (racemic) [Example 54, (1R,2R,4R) and (1S,2S,4S)-2-Propoxy-4-(2-trifluoromethyl-benzenesulfonyl)-cyclopentanecarboxylic acid (1-cyano-cyclopropyl)-amide] had an IC50 of 2.1 nM.

Take `Cc1cc(-c2ccc(S(=O)(=O)[C@H]3C[C@@H](OC4CCC4)[C@H](C(=O)NC4(C#N)CC4)C3)c(C(F)(F)F)c2)ccn1` (racemic) [Example 210, (1R,2R,4R) and (1S,2S,4S)-2-Cyclobutoxy-4-[4-(2-methyl-pyridin-4-yl)-2-trifluoromethyl-benzenesulfonyl]-cyclopentanecarboxylic acid (1-cyano-cyclopropyl)-amide]: the half-inhibitory concentration (IC50) is 0.21 nM.

Compound `N#CC1(NC(=O)[C@@H]2C[C@@H](S(=O)(=O)c3ccccc3Cl)C[C@H]2OCc2ccc(C(F)(F)F)cc2)CC1` (racemic) [Example 247, (1R,2R,4R) and (1S,2S,4S)-4-(2-chlorophenylsulfonyl)-N-(1-cyanocyclopropyl)-2-(4-(trifluoromethyl)benzyloxy)cyclopentanecarboxamide] had a concentration for half-maximal inhibition (IC50) of 5.98 nM. With `N#CC1(NC(=O)[C@@H]2C[C@@H](S(=O)(=O)c3ccccc3)C[C@H]2C(=O)N2CCCCC2)CC1` [Example 12, (1R,2R,4R)-4-Benzenesulfonyl-2-(piperidine-1-carbonyl)-cyclopentanecarboxylic acid (1-cyano-cyclopropyl)-amide], the IC50 was found to be 0.8 nM. As for `CC(=O)N1CCN(c2ccc(S(=O)(=O)[C@H]3C[C@@H](C(=O)NC4(C#N)CC4)[C@H](C(=O)N4CCC(F)(F)C4)C3)c(Cl)c2)CC1` [Example 209, (1R,2R,4S)-4-[4-(4-Acetyl-piperazin-1-yl)-2-chloro-benzenesulfonyl]-2-(3,3-difluoro-pyrrolidine-1-carbonyl)-cyclopentanecarboxylic acid (1-cyano-cyclopropyl)-amide], the figure is 0.54 nM; as for `CCN(CC)C(=O)[C@@H]1C[C@H](S(=O)(=O)c2ccccc2)C[C@H]1C(=O)NC1(C#N)CC1` [Example 25, (1R,2R,4R)-4-Benzenesulfonyl-cyclopentane-1,2-dicarboxylic acid 1-[(1-cyano-cyclopropyl)-amide]2-diethylamide], 2.6 nM; as for `N#CC1(NC(=O)[C@@H]2C[C@@H](S(=O)(=O)c3ccc(Cl)cc3Cl)C[C@H]2OCc2ccc(Cl)cc2)CC1` (racemic) [Example 233, (1R,2R,4R) and (1S,2S,4S)-2-(4-Chloro-benzyloxy)-4-(2,4-dichloro-benzenesulfonyl)-cyclopentanecarboxylic acid (1-cyano-cyclopropyl)-amide], 10.5 nM. In the case of `N#CCNC(=O)[C@@H]1CC(S(=O)(=O)c2ccccc2Cl)C[C@H]1COc1ccc(O)nn1` (mixture of isomers) [Example 107, (1R,2R,4R)-4-(2-Chloro-benzenesulfonyl)-2-(6-hydroxy-pyridazin-3-yloxymethyl)-cyclopentanecarboxylic acid cyanomethylamide and (1R,2R,4S)-4-(2-Chloro-benzenesulfonyl)-2-(6-hydroxy-pyridazin-3-yloxymethyl)-cyclopentanecarboxylic acid cyanomethylamide], half-maximal inhibition (IC50) required 20.2 nM. In the case of `CO[C@@H]1C[C@H](S(=O)(=O)c2ccc(-c3ccc(F)cn3)cc2C(F)(F)F)C[C@H]1C(=O)NC1(C#N)CC1` (racemic) [Example 30, (1R,2R,4R) and (1S,2S,4S)-4-[4-(5-Fluoro-pyridin-2-yl)-2-trifluoromethyl-benzenesulfonyl]-2-methoxy-cyclopentanecarboxylic acid (1-cyano-cyclopropyl)-amide], the IC50 turned out to be 1 nM.

`N#CC1(NC(=O)[C@H]2CC[C@H](S(=O)(=O)c3ccc(N4CC5(COC5)C4)cc3Cl)C2)CC1` (racemic) [Example 95, (1S,3S) and (1R,3R)-3-[2-chloro-4-(2-oxa-6-aza-spiro[3.3]hept-6-yl)-benzenesulfonyl]-cyclopentanecarboxylic acid (1-cyano-cyclopropyl)-amide] displayed an IC50 of 140 nM. As to `CCN1CCN(c2ccc(S(=O)(=O)[C@H]3C[C@@H](COc4ccc(F)cc4)[C@H](C(=O)NCC#N)C3)c(Cl)c2)CC1` [Example 147, (1R,2R,4S)-4-[2-Chloro-4-(4-ethyl-piperazin-1-yl)-benzenesulfonyl]-2-(4-fluoro-phenoxymethyl)-cyclopentanecarboxylic acid cyanomethyl-amide], 0.227 nM corresponded to half-maximal inhibition (IC50).

The values are drawn from patent US20100317647A1 (priority 2009, published 2010).
